Values quoted from earlier work as cited in patent US20230118497A1, “PYRAZOLE-CONTAINING POLYCYCLIC DERIVATIVE INHIBITOR, PREPARATION METHOD THEREFOR AND APPLICATION THEREOF” (Shanghai Hansoh Biomedical Co., Ltd., priority 2019, published 2023).

Tests used:
[1] = phase I clinical trials; cited from earlier work
[2] = phase 2 RELIEF trial, patients with refractory chronic cough, any dose; cited from earlier work
P2X3/P2X2/3 = conditions: background; cited from earlier work

CNC(=O)c1cc(F)c(-c2nc3cc(C)ccn3c2C[C@H]2CN(C(=O)OC)CCO2)c(F)c1 [BLU5937]
side effects [1]: no side effects such as taste side effects appeared | primary endpoint of placebo-adjusted reduction in cough frequency [2]: failed to achieve statistical significance | selectivity to P2X3/P2X2/3 (P2X3/P2X2/3): high selectivity
